The values that follow come from patent US9284283B2, “Macrocyclic compounds for modulating IL-17” (ENSEMBLE THERAPEUTICS CORPORATION, priority 2012, dated 2016).

The target in one assay is T1, IL17A (Homo sapiens, UniProt Q16552).
T1 sequence (Q16552 24-155): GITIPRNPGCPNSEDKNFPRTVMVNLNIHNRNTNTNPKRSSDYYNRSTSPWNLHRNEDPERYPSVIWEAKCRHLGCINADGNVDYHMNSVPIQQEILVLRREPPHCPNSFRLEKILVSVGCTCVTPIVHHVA
As to the kind of experiment: Surface Plasmon Resonance (SPR) analysis of compound interactions with IL17A. Conditions: SPR binding to IL17A. How it is done:
SPR analysis was carried out with a GE Healthcare (Piscataway, N.J.) Biacore X100 system. Typically, the chip (NTA Biacore Biosensor chip; GE Healthcare BR-1000-34) was first conditioned by injection of 0.35 M EDTA, which also served to remove any immobilized proteins from previous runs. Before immobilization of the recombinant 6-His-tagged IL17, the chip was washed with 0.5 mM nickel chloride in NTA buffer (10 mM HEPES buffer, 0.15 M sodium chloride, 10 μM ethylene diamine tetraacetic acid, 0.005% v/v surfactant P20 (GE Healthcare BR-1000-54)) to form a nickel chelate on the chip. IL17 protein was immobilized onto a NTA chip through its 6-His tag. IL17A was typically injected at 0.25 μM for 60-120 seconds, followed by a stabilization step washing with NTA+0.5% DMSO for 120 seconds or longer.
Five 2-fold or 3-fold serial dilutions of test compound were injected serially onto the chip. All steps were conducted using NTA buffer containing 0.5% v/v dimethylsulfoxide (DMSO). Compounds were diluted from stock solutions of 10 mM concentration in 100% DMSO with NTA buffer to obtain 50 μM solutions in NTA+0.5% DMSO. Subsequent 2× or 3× dilutions were made in NTA+0.5% DMSO. Compound was generally injected for 180 seconds followed by washing the chip in buffer alone for 120 seconds. The rate of refractive index change (RU units/time) and the maximum extend of RU change was measured during the “on” phase of analyte injection, followed by measuring the rate during the “off” phase.
Kinetic parameter fits were conducted using the Biacore SPR Evaluation Program (GE Healthcare) for 1:1 molecular binding fits, after subtracting the baseline average of 2 or more runs in which no analyte was injected. This program then reports the best fit average for the “on” rate (Ka), the “off” rate (Kd) and the dissociation constant (KD) (Chaiken, I et al., Anal Biochem 201, 197-210 (1992)). A separate program in the Biacore SPR Evaluation Program then calculates the best fit for Kd based upon the extent of binding alone (RU units bound) at each concentration of analyte and reports the best fit Kd by best fit to a Lineweaver-Burke plot. Typically, the Kd value calculated through both means agreed within a factor of three.
The presence and activity of IL17 on the NTA chip was routinely confirmed three ways: • 1) An increase in response units (RU) upon immobilization confirms that the IL17 was immobilized on the chip; • 2) Anti-IL17 was also injected on the chip to confirm the presence of IL17; and • 3) IL17R was injected onto the chip to confirm that the immobilized IL17 retained its binding activity for its receptor. Negative controls to access specificity for compound binding were conducted by immobilizing unrelated, but his-tagged, proteins (such as cyclophilin D) and conducting the same analysis as done with IL17A.
A general note: In SPR one partner is held on a chip, and binding of the other changes the refractive index at the surface.

Assay [1] addresses T2, recombinant human IL17a (binding to its receptor IL17R) (Homo sapiens, UniProt Q16552).
T2 construct: purchased R&D Systems 317-ILB (IL17a); 177-IR (IL17R/Fc)
T2 sequence (Q16552 20-155 limits assumed): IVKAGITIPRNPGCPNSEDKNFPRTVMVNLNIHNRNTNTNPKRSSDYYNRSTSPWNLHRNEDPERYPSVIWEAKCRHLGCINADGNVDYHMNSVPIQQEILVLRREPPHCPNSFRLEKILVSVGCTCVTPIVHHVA
Put plainly: IL-17 competition ELISA I (IL17a coated, IL17R/Fc binding). The method in brief:
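Plates coated with 20 nM recombinant human IL17a received compound dilutions and 12 nM IL17R/Fc (final) for 30 min at room temperature. Bound receptor was detected with HRP anti-human Fc and TMB, read at 450 nm. IC50 came from a 4-parameter logistic fit between no-competitor and blank controls.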

Assay [2] addresses T3, biotinylated human IL-17 (binding to IL17R/Fc) (Homo sapiens, UniProt Q16552).
T3 construct: purchased R&D Systems 317-ILB (IL-17, biotinylated); 177-IR (IL17R/Fc)
T3 sequence (Q16552 20-155 limits assumed): T2 sequence (Q16552 20-155 limits assumed)
As to the kind of experiment: IL-17 competition ELISA II (captured IL17R/Fc, biotinylated IL-17). The method in brief:
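Anti-human IgG-coated plates captured IL17R/Fc (10 nM), then compound (5-fold dilutions from 1 μM) and biotinylated human IL-17 (20 nM stock) were added for 30 min at room temperature in PBST. Bound IL-17 detected by streptavidin-HRP/TMB at 450 nm. IC50 from 4-parameter logistic fit between no-competitor and blank controls.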

The test system of assay [3] is IL-17A induced secretion of IL-6 in primary human RASF cells. Put plainly: Inhibition of IL17A induced secretion of IL6 in human rheumatoid arthritis synovial fibroblast (RASF) cells. Type of assay: cell-based. The settings on record: Homo sapiens, Fibroblast. The method in brief:
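Primary RASF cells (passage 2-8) stimulated 20 h at 37 °C with rhIL-17A (30 ng/mL) pre-incubated 1 h with compound (final 0.03-25 μM, 0.25% DMSO). Supernatant IL-6 measured by ELISA, normalized to WST1 viability; triplicates.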

“And” between values parts separate entries of the source, which are not always exact repeats. Equal values may be shown once.

As usually defined, the Kd is the equilibrium constant for the complex coming apart. With `COC(=O)[C@H]1CCCCNC(=O)CCCNC(=O)[C@H](Cc2ccc(NC(=O)[C@H](Cc3ccccc3F)NC(=O)Cc3ccccc3)cc2)NC(=O)CC2(CCCC2)CC(=O)N1` [Compound 101], at IL17A, the Kd is 1000 to 10000 nM.

As for `O=C1CC2(CCCC2)CC(=O)N[C@@H](C(=O)O)CCCCNC(=O)[C@H](Cc2ccc(NC(=O)[C@H](Cc3ccccc3F)NC(=O)Cc3ccccc3)cc2)N1` [Compound 102], the Kd on IL17A is > 10000 nM.

With `O=C1CCCNC(=O)[C@H](Cc2ccc(NC(=O)[C@H](Cc3ccccc3F)NC(=O)Cc3ccccc3)cc2)NC(=O)CC2(CCCC2)CC(=O)N[C@@H](C(=O)O)CCCCN1` [Compound 103], the Kd on IL17A is > 10000 nM.

In turn, `COC(=O)[C@H]1CCCCNC(=O)CCCNC(=O)[C@H](Cc2ccc(NC(=O)[C@H](Cc3ccccc3)NC(=O)Cc3ccccc3)cc2)NC(=O)CC2(CCCC2)CC(=O)N1` [Compound 104] showed a Kd at IL17A of 1000 to 10000 nM.

As to `COC(=O)[C@@H]1CCCCNC(=O)CCCNC(=O)[C@H](Cc2ccc(NC(=O)[C@H](Cc3ccccc3F)NC(=O)Cc3ccccc3)cc2)NC(=O)CC2(CCCC2)CC(=O)N1` [Compound 105], at IL17A, the Kd is 1000 to 10000 nM and 100 to 1000 nM.

Molecule `COC(=O)[C@@H]1CCCCNC(=O)CCCCCNC(=O)[C@@H](Cc2ccc(NC(=O)[C@H](Cc3ccccc3F)NC(=O)Cc3ccccc3)cc2)NC(=O)CC2(CCCC2)CC(=O)N1` [Compound 111] displayed a Kd on IL17A of 100 to 1000 nM.

`COC(=O)[C@@H]1CCCCNC(=O)CCCNC(=O)[C@@H](Cc2ccc(NC(=O)[C@H](Cc3ccccc3)NC(=O)Cc3ccccc3)cc2)NC(=O)CC2(CCCC2)CC(=O)N1` [Compound 114]: the Kd on IL17A lay within 100 to 1000 nM.

`COC(=O)[C@@H]1CCCCNC(=O)CCCNC(=O)[C@@H](Cc2ccc(NC(=O)[C@H](Cc3ccccc3)NC(=O)c3ccccc3)cc2)NC(=O)CC2(CCCC2)CC(=O)N1` [Compound 115] returned an equilibrium dissociation constant (Kd) at IL17A of 100 to 1000 nM.

Take `COC(=O)[C@@H]1CCCCNC(=O)CCCNC(=O)[C@@H](Cc2ccc(NC(=O)[C@H](Cc3cccc(F)c3)NC(=O)Cc3ccccc3)cc2)NC(=O)CC2(CCCC2)CC(=O)N1` [Compound 116]: the Kd at IL17A fell in the range of 100 to 1000 nM.

Molecule `COC(=O)[C@@H]1CCCCNC(=O)CCCNC(=O)[C@@H](Cc2ccc(NC(=O)[C@H](Cc3cccc(F)c3)NC(=O)c3ccccc3)cc2)NC(=O)CC2(CCCC2)CC(=O)N1` [Compound 117] registered a Kd on IL17A of 100 to 1000 nM.

`COC(=O)[C@@H]1CCCCNC(=O)CCCNC(=O)[C@@H](Cc2ccc(NC(=O)[C@H](Cc3ccc(F)cc3)NC(=O)c3ccccc3)cc2)NC(=O)CC2(CCCC2)CC(=O)N1` [Compound 119]: the Kd at IL17A lay in the range of 100 to 1000 nM.

Consider `COC(=O)[C@@H]1CCCCNC(=O)CCCNC(=O)[C@@H](Cc2ccc(NC(=O)[C@H](Cc3ccccc3Br)NC(=O)c3ccccc3)cc2)NC(=O)CC2(CCCC2)CC(=O)N1` [Compound 121], for which the Kd at IL17A was 100 to 1000 nM.

Turning to `CC[C@H](C)[C@H](NC(=O)c1ccccc1)C(=O)Nc1ccc(C[C@H]2NC(=O)CC3(CCCC3)CC(=O)N[C@H](C(=O)OC)CCCCNC(=O)CCCNC2=O)cc1` [Compound 123], the Kd at IL17A is 1000 to 10000 nM.

On to `COC(=O)[C@@H]1CCCCNC(=O)CCCNC(=O)[C@@H](Cc2ccc(NC(=O)[C@H](Cc3ccc(-c4ccccc4)cc3)NC(=O)Cc3ccccc3)cc2)NC(=O)CC2(CCCC2)CC(=O)N1` [Compound 124], for which the Kd at IL17A was 100 to 1000 nM.

In the case of `COC(=O)[C@@H]1CCCCNC(=O)CCCNC(=O)[C@@H](Cc2ccc(NC(=O)[C@H](Cc3ccc(-c4ccccc4)cc3)NC(=O)c3ccccc3)cc2)NC(=O)CC2(CCCC2)CC(=O)N1` [Compound 125], the Kd at IL17A lay in the range of 100 to 1000 nM.

`COC(=O)[C@@H]1CCCCNC(=O)CCCNC(=O)[C@@H](Cc2ccc(NC(=O)[C@H](Cc3ccccc3C)NC(=O)Cc3ccccc3)cc2)NC(=O)CC2(CCCC2)CC(=O)N1` [Compound 126] came in with a Kd at IL17A of 100 to 1000 nM.

In the case of `COC(=O)[C@@H]1CCCCNC(=O)CCCNC(=O)[C@@H](Cc2ccc(NC(=O)[C@H](Cc3ccccc3C)NC(=O)c3ccccc3)cc2)NC(=O)CC2(CCCC2)CC(=O)N1` [Compound 127], the Kd at IL17A was 100 to 1000 nM.

In turn, `COC(=O)[C@@H]1CCCCNC(=O)CCCNC(=O)[C@@H](Cc2ccc(NC(=O)[C@H](Cc3ccccc3F)NC(=O)c3ccccc3)cc2)NC(=O)CC2(CCCC2)CC(=O)N1` [Compound 128] came in with a Kd at IL17A of 100 to 1000 nM.

`COC(=O)[C@@H]1Cc2ccc(cc2)NC(=O)CCCNC(=O)[C@@H](Cc2ccc(NC(=O)[C@H](Cc3ccccc3F)NC(=O)c3ccccc3)cc2)NC(=O)CC2(CCCC2)CC(=O)N1` [Compound 134] gave a Kd on IL17A of 100 to 1000 nM.

At IL17A, `COC(=O)[C@@H]1Cc2ccc(cc2)NC(=O)CCCNC(=O)[C@@H](Cc2ccc(NC(=O)[C@H](Cc3ccccc3F)NC(=O)Cc3ccccc3)cc2)NC(=O)CC2(CCCC2)CC(=O)N1` [Compound 135] displayed a Kd of 100 to 1000 nM.

With `COC(=O)[C@H]1CCCCNC(=O)CCCNC(=O)[C@@H](Cc2ccc(NC(=O)[C@H](Cc3ccccc3F)NC(=O)c3ccccc3)cc2)NC(=O)CC2(CCCC2)CC(=O)N1` [Compound 136], on IL17A, the Kd was < 100 nM.

In the case of `COC(=O)[C@@H]1CCCCNC(=O)CCCNC(=O)[C@H](Cc2ccc(NC(=O)[C@H](Cc3ccccc3F)NC(=O)c3ccccc3)cc2)NC(=O)CC2(CCCC2)CC(=O)N1` [Compound 137], on IL17A, the Kd was 100 to 1000 nM.

At IL17A, `COC(=O)[C@H]1CCCCNC(=O)CCCNC(=O)[C@@H](Cc2ccc(NC(=O)[C@H](Cc3ccccc3)NC(=O)Cc3ccccc3)cc2)NC(=O)CC2(CCCC2)CC(=O)N1` [Compound 138] yielded a Kd of 100 to 1000 nM.

`COC(=O)[C@H]1CCCCNC(=O)CCCNC(=O)[C@@H](Cc2ccc(NC(=O)[C@H](Cc3ccccc3)NC(=O)c3ccccc3)cc2)NC(=O)CC2(CCCC2)CC(=O)N1` [Compound 139] yielded a Kd on IL17A of 100 to 1000 nM.

Turning to `COC(=O)[C@@H]1CCCCNC(=O)CCCNC(=O)[C@@H](Cc2ccc(NC(=O)[C@H](Cc3ccccc3)NC(=O)Cc3ccc(C(F)(F)F)cc3)cc2)NC(=O)CC2(CCCC2)CC(=O)N1` [Compound 140], the Kd on IL17A fell in the range of 100 to 1000 nM.

Regarding `COC(=O)[C@H]1CCCCNC(=O)C(C)(C)NC(=O)[C@@H](Cc2ccc(NC(=O)[C@H](Cc3ccccc3Cl)NC(=O)Cc3ccccc3)cc2)NC(=O)CC2(CCCC2)CC(=O)N1` [Compound 145], the Kd at IL17A was < 100 nM.

The term IC50 denotes the concentration that inhibits the measured activity by half. As to `C[C@H]1NC(=O)[C@@H](Cc2ccc(NC(=O)[C@H](Cc3ccccc3Cl)NC(=O)c3cccnc3)cc2)NC(=O)CC2(CCCC2)CC(=O)N[C@H](C(=O)O)CCCCNC1=O` [Compound 368], the IC50 is 100 to 1000 nM in assay [1], < 100 nM in assay [2] and 100 to 1000 nM in assay [3].

As to `C[C@H]1NC(=O)[C@@H](Cc2ccc(NC(=O)[C@@H](NC(=O)Cc3ccccc3)C3CCCCC3)cc2)NC(=O)CC2(CCCC2)CC(=O)N[C@H](C(=O)O)CCCCNC1=O` [Compound 369], the IC50 in assay [1], in assay [2] and in assay [3] was < 100 nM each time.

Turning to `O=C1CNC(=O)[C@@H](Cc2ccc(NC(=O)[C@@H](NC(=O)Cc3cccc(O)c3)C3CCCCC3)cc2)NC(=O)CC2(CCCC2)CC(=O)NCCCCCN1` [Compound 378], the IC50 in assay [1] was 100 to 1000 nM; in assay [2], < 100 nM; in assay [3], 100 to 1000 nM.
